# According to patent US9902725B2, “Heterocyclic derivatives as RORgamma modulators” (GENFIT, priority 2014, dated 2018):
# pIC50: −log10 of the molar value.
# Target: T1, RORγt ligand-binding domain (RORγt-LBD) (Homo sapiens, UniProt P51449)
# T1 construct: 20 nM recombinantly expressed RORγ-LBD fused to GST
# T1 sequence (P51449 269-508 limits assumed): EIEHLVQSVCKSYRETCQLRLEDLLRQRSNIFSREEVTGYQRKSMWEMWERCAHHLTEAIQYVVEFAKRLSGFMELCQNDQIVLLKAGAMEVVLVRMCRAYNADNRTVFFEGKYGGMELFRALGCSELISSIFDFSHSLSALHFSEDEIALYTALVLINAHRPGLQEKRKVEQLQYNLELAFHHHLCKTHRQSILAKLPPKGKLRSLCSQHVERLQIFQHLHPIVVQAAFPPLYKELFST
# Test: Time-resolved FRET (TR-FRET) RORγt coactivator assay
# Assay type: biochemical
# Conditions: GST-RORγ-LBD, biotinylated RIP140 peptide, coactivator displacement
# Text: Time-resolved FRET (TR-FRET) RORγt coactivator assay was used to identify RORγ modulator compounds with ligand-dependent coactivator displacement. The assay uses a d2-labeled anti-GST antibody, synthetic N-terminally biotinylated peptide which is derived from nuclear receptor coactivator protein RIP140, and a RORγt ligand-binding domain (RORγt-LBD) that is tagged with glutathione-S-transferase (GST). The influence of compounds on the RORγ-peptide interaction relies on the binding dependent energy transfer from a donor to an acceptor fluorophore attached to the binding partner of interest. […] For reduction of background from compound fluorescence, TR-FRET method makes use of generic fluorophore labels and time resolved detection.
# The assays were done in a final volume of 20 μl in a 384 well plate in a CHAPS buffer (2 mM CHAPS; 1 mM DTT, 2 mM EDTA; 0.1% BSA), containing 20 nM recombinantly expressed RORγ-LBD fused to GST, 30 nM N-terminally biotinylated peptide, 1 nM streptavidin-terbium conjugate and 20 nM d2 labeled-anti-GST. Test compounds were diluted using 10 mM stock solution. The range of the final compound concentrations used in this test was from 0.3 nM to 30 μM (logarithmic scale). DMSO content of the samples was kept at 1%. The assay was equilibrated for 2 hours in the dark at room temperature in 384 well plates (Falcon). The signal was detected by an Ultra384 reader (TECAN). The results were visualized by plotting the ratio between the emitted light at 665 nm and 620 nm. A basal level of RORγ-peptide formation is observed in the absence of added compound. Compounds that promote coactivator displacement induce a concentration-dependent decrease in time-resolved fluorescent signal. Data were collected and analyzed using GraphPad Prism software (GraphPad Software V5.02, San Diego Calif. USA). IC50 in μM and Emax in % were reported for each compound.
row,SMILES,pIC50
1,"Cc1ccc(C(NC(=O)Cc2ccc3[nH]cc(CCC(=O)OC(C)(C)C)c3c2)c2ccccc2)c(N2CCCCCC2)c1 (centres unmarked) [Cpd. 250, tert-butyl 3-{5-[({[2-(azepan-1-yl)-4-methylphenyl](phenyl)methyl}carbamoyl)methyl]-1H-indol-3-yl}propanoate]",> 6.00
2,"Cc1cc(C(NC(=O)Cc2ccc3[nH]cc(CCC(=O)OC(C)(C)C)c3c2)c2ccccc2N2CCCCC2)oc1C (centres unmarked) [Cpd. 252, tert-butyl 3-[5-({[(4,5-dimethylfuran-2-yl)[2-(piperidin-1-yl)phenyl]methyl]carbamoyl}methyl)-1H-indol-3-yl]propanoate]",5.00 to 6.00
3,"Cc1ccc(C(NC(=O)Cc2ccc3[nH]cc(CCC(=O)OC(C)(C)C)c3c2)c2ccccc2OC(C)C)o1 (centres unmarked) [Cpd. 254, tert-butyl 3-[5-({[(5-methylfuran-2-yl)[2-(propan-2-yloxy)phenyl]methyl]carbamoyl}methyl)-1H-indol-3-yl]propanoate]",> 6.00
4,"COC(=O)Cc1c[nH]c2ccc(CC(=O)NC(c3ncccn3)c3ccc(C)cc3Br)cc12 (centres unmarked) [Cpd. 256, methyl 2-[5-({[(2-bromo-4-methylphenyl)(pyrimidin-2-yl)methyl]carbamoyl}methyl)-1H-indol-3-yl]acetate]",5.00 to 6.00
5,"C#CCC(NC(=O)Cc1ccc2[nH]cc(CCC(=O)OC(C)(C)C)c2c1)c1ccccc1N1CCCCC1 (centres unmarked) [Cpd. 260, tert-butyl 3-{5-[({1-[2-(piperidin-1-yl)phenyl]but-3-yn-1-yl}carbamoyl)methyl]-1H-indol-3-yl}propanoate]",5.00 to 6.00
6,"Cc1ccc(Cl)c(C(NC(=O)Cc2ccc3[nH]cc(CCC(=O)O)c3c2)c2ccccc2)c1 (centres unmarked) [compound 42, 3-[5-({[(2-chloro-5-methylphenyl)(phenyl)methyl]carbamoyl}methyl)-1H-indol-3-yl]propanoic acid]",> 6.00
7,"Cc1cc(Br)ccc1C(NC(=O)Cc1ccc2[nH]cc(CCC(=O)O)c2c1)c1ccccc1 (centres unmarked) [compound 44, 3-[5-({[(4-bromo-2-methylphenyl)(phenyl)methyl]carbamoyl}methyl)-1H-indol-3-yl]propanoic acid]",> 6.00
8,"Cc1cc(F)ccc1C(NC(=O)Cc1ccc2[nH]cc(CCC(=O)O)c2c1)c1ccccc1 (centres unmarked) [compound 46, 3-[5-({[(4-fluoro-2-methylphenyl)(phenyl)methyl]carbamoyl}methyl)-1H-indol-3-yl]propanoic acid]",> 6.00
9,"Nc1ccccc1C(NC(=O)Cc1ccc2[nH]cc(CCC(=O)O)c2c1)c1ccccc1 (centres unmarked) [compound 52, 3-[5-({[(2-aminophenyl)(phenyl)methyl]carbamoyl}methyl)-1H-indol-3-yl]propanoic acid]",5.00 to 6.00
10,"CN(C)c1ccccc1C(NC(=O)Cc1ccc2[nH]cc(CCC(=O)O)c2c1)c1ccccc1 (centres unmarked) [compound 54, 3-{5-[({[2-(dimethylamino)phenyl](phenyl)methyl}carbamoyl)methyl]-1H-indol-3-yl}propanoic acid]",> 6.00
11,"O=C(O)CCc1c[nH]c2ccc(NC(=O)NC(c3ccccc3)c3ccccc3N3CCCCC3)cc12 (centres unmarked) [compound 56, 3-{5-[({phenyl[2-(piperidin-1-yl)phenyl]methyl}carbamoyl)amino]-1H-indol-3-yl}propanoic acid]",> 6.00
12,"CC(C)CC(NC(=O)Cc1ccc2[nH]cc(CCC(=O)O)c2c1)c1ccccc1N1CCOCC1 (centres unmarked) [compound 58, 3-{5-[({3-methyl-1-[2-(morpholin-4-yl)phenyl]butyl}carbamoyl)methyl]-1H-indol-3-yl}propanoic acid]",> 6.00
13,"NC(=O)c1ccc(C(NC(=O)Cc2ccc3[nH]cc(CCC(=O)O)c3c2)c2ccccc2)c(N2CCCC2)c1 (centres unmarked) [compound 63, 3-{5-[({[4-carbamoyl-2-(pyrrolidin-1-yl)phenyl](phenyl)methyl}carbamoyl)methyl]-1H-indol-3-yl}propanoic acid]",5.00 to 6.00
14,"O=C(O)Cc1c[nH]c2ccc(CC(=O)NC(c3ccccc3)c3ccc(Br)cc3N3CCCC3)cc12 (centres unmarked) [compound 67, 2-{5-[({[4-bromo-2-(pyrrolidin-1-yl)phenyl](phenyl)methyl}carbamoyl)methyl]-1H-indol-3-yl}acetic acid]",> 6.00
15,"O=C(O)Cc1c[nH]c2ccc(NC(=O)NC(c3ccccc3)c3ccccc3N3CCCCC3)cc12 (centres unmarked) [compound 69, 2-{5-[({phenyl[2-(piperidin-1-yl)phenyl]methyl}carbamoyl)amino]-1H-indol-3-yl}acetic acid]",5.00 to 6.00
16,"CN(C)c1ccccc1C(NC(=O)Cc1ccc2[nH]cc(CC(=O)O)c2c1)c1ccccc1 (centres unmarked) [compound 71, 2-{5-[({[2-(dimethylamino)phenyl](phenyl)methyl}carbamoyl)methyl]-1H-indol-3-yl}acetic acid]",5.00 to 6.00
17,"O=C(O)Cc1c[nH]c2ccc(CC(=O)NC(c3ccccc3)c3ccccc3N3CCCC3)cc12 (centres unmarked) [compound 73, 2-{5-[({phenyl[2-(pyrrolidin-1-yl)phenyl]methyl}carbamoyl)methyl]-1H-indol-3-yl}acetic acid]",5.00 to 6.00
18,"O=C(O)Cc1c[nH]c2ccc(CC(=O)NC(c3ccccc3)c3ccccc3N3CCCCCC3)cc12 (centres unmarked) [compound 75, 2-{5-[({[2-(azepan-1-yl)phenyl](phenyl)methyl}carbamoyl)methyl]-1H-indol-3-yl}acetic acid]",5.00 to 6.00
19,"O=C(O)CCc1c[nH]c2ccc(CC(=O)NC(c3ccccc3)c3ccccc3N3CCCC3)cc12 (centres unmarked) [compound 79, 3-{5-[({phenyl[2-(pyrrolidin-1-yl)phenyl]methyl}carbamoyl)methyl]-1H-indol-3-yl}propanoic acid]",> 6.00
20,"Cc1ccc(C(NC(=O)Cc2ccc3[nH]cc(CCC(=O)O)c3c2)c2ccccc2)c(N2CCOCC2)c1 (centres unmarked) [compound 81, 3-{5-[({[4-methyl-2-(morpholin-4-yl)phenyl](phenyl)methyl}carbamoyl)methyl]-1H-indol-3-yl}propanoic acid]",> 6.00
21,"COc1ccc(C(NC(=O)Cc2ccc3[nH]cc(CCC(=O)O)c3c2)c2ccccc2)c(C)c1 (centres unmarked) [compound 83, 3-[5-({[(4-methoxy-2-methylphenyl)(phenyl)methyl]carbamoyl}methyl)-1H-indol-3-yl]propanoic acid]",> 6.00
22,"O=C(O)Cc1c[nH]c2ccc(CC(=O)NC(c3ccccc3)c3ccc(Cl)cc3N3CCCC3)cc12 (centres unmarked) [compound 85, 2-{5-[({[4-chloro-2-(pyrrolidin-1-yl)phenyl](phenyl)methyl}carbamoyl)methyl]-1H-indol-3-yl}acetic acid]",> 6.00
23,"O=C(O)Cc1c[nH]c2ccc(CC(=O)NC(c3ccccc3)c3ccc(C(F)(F)F)cc3N3CCCC3)cc12 (centres unmarked) [compound 89, 2-{5-[({phenyl[2-(pyrrolidin-1-yl)-4-(trifluoromethyl)phenyl]methyl}carbamoyl)methyl]-1H-indol-3-yl}acetic acid]",> 6.00
24,"O=C(O)CCc1c[nH]c2ccc(CC(=O)NC(c3ccccc3)c3ccc(F)cc3N3CCCC3)cc12 (centres unmarked) [compound 93, 3-{5-[({[4-fluoro-2-(pyrrolidin-1-yl)phenyl](phenyl)methyl}carbamoyl)methyl]-1H-indol-3-yl}propanoic acid]",> 6.00
25,"O=C(O)CCc1c[nH]c2ncc(NC(=O)NC(c3ccccc3)c3ccccc3N3CCCCC3)cc12 (centres unmarked) [compound 95, 3-{5-[({phenyl[2-(piperidin-1-yl)phenyl]methyl}carbamoyl)amino]-1H-pyrrolo[2,3-b]pyridin-3-yl}propanoic acid]",5.00 to 6.00
26,"COc1cc(C)ccc1C(NC(=O)Cc1ccc2[nH]cc(CCC(=O)O)c2c1)c1ccccc1 (centres unmarked) [compound 99, 3-[5-({[(2-methoxy-4-methylphenyl)(phenyl)methyl]carbamoyl}methyl)-1H-indol-3-yl]propanoic acid]",> 6.00
27,"Cc1ccc(C(NC(=O)Cc2ccc3[nH]cc(CCC(=O)O)c3c2)c2ccc(C)s2)c(C)c1 (centres unmarked) [compound 101, 3-[5-({[(2,4-dimethylphenyl)(5-methylthiophen-2-yl)methyl]carbamoyl}methyl)-1H-indol-3-yl]propanoic acid]",> 6.00
28,"Cc1ccc(C(NC(=O)Cc2ccc3[nH]cc(CCC(=O)O)c3c2)c2ccccc2)c(N2CCN(C)CC2)c1 (centres unmarked) [compound 103, 3-{5-[({[4-methyl-2-(4-methylpiperazin-1-yl)phenyl](phenyl)methyl}carbamoyl)methyl]-1H-indol-3-yl}propanoic acid]",5.00 to 6.00
29,"O=C(O)CCc1c[nH]c2ccc(CC(=O)NC(c3ccccc3)c3ccccc3-n3cccc3)cc12 (centres unmarked) [compound 107, 3-{5-[({phenyl[2-(1H-pyrrol-1-yl)phenyl]methyl}carbamoyl)methyl]-1H-indol-3-yl}propanoic acid]",> 6.00
